# Patent publication US20260124167A1, “SIRTUIN ACTIVATOR OR EXPRESSION ENHANCER, NAD+ INCREASING AGENT, AND SENESCENT CELL INHIBITOR” (WAKUNAGA PHARMACEUTICAL CO., LTD., priority 2022, published 2026)
# What was measured:
# SIRT1 = molecular target: T1, SIRT1 (Mus musculus, UniProt Q923E4); assay: SIRT1 activation action (in vivo), cerebral cortex lysate, SIRT1_GLO kit; details: SAMP8 mice, single oral dose, 180 minutes after administration; FIG. 2
# T1 construct: from tissue; host or cells: cerebral cortex of SAMP8 mice
# T1 sequence (Q923E4 1-737): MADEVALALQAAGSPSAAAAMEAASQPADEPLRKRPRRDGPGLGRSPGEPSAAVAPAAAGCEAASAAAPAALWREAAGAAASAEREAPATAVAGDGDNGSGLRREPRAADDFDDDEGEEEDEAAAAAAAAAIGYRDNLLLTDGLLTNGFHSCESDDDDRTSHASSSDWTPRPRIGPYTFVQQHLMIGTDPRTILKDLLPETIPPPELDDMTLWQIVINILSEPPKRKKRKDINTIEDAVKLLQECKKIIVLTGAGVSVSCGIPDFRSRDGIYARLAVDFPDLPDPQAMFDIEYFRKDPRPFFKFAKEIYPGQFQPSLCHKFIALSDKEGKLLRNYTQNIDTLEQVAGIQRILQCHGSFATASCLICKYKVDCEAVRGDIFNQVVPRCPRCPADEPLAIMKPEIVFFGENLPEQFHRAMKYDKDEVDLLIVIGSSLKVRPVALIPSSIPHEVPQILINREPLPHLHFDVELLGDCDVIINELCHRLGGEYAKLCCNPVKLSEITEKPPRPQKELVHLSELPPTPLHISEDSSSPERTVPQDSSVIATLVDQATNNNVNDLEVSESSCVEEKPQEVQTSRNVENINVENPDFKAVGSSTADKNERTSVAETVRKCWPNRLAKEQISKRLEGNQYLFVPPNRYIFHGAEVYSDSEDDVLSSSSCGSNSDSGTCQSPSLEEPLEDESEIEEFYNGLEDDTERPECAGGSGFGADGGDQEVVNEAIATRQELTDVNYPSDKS
# Experimental: (§1) (a) About 5 mg of S-1-propenylcysteine (cis/trans mixture) produced in Preparation Example 2 was weighed precisely, and dissolved in 10 mL of purified water to prepare an administration liquid. (b) About 6 mg of S-1-propenylcysteine (cis/trans mixture) produced in Preparation Example 2 was weighed precisely and dissolved in 1 mL of culture liquid. The liquid was used as a stock solution, diluted appropriately, and subjected to an in vitro test.
# (§2) Animals for evaluating the biological activity were bred as follows. Senescence-accelerated mice SAMP8 (male) for testing were purchased from Japan SLC, Inc. After purchase, the animals were acclimatized for one week and used as animals for the evaluation tests.
# A SIRT1_GLO kit manufactured by Promega Corporation was purchased to measure the sirtuins activity. A lysate of the cerebral cortex was placed in a 96-well plate, various reaction reagents were added, and then luminous intensity of luciferase was measured by a plate reader.
# A single dose of the sample prepared in the above (1) (a) was orally administrated to animals for the evaluation tests in the above (2), and then cerebral cortices of such animals were extracted 15, 30, 60, and 180 minutes later. […] Centrifugation was performed and the sirtuins activity in the supernatant thereof was measured. […]
# SIRT1 protein [1] = assay: SIRT1 protein increasing action (in vivo), hippocampus, Western Blotting; details: SAMP8 mice, repeated oral administration for two weeks; FIG. 3
# Experimental: as §1, §2
# (§3) After repeated oral administration of the sample prepared in the above (1) (a) to animals for the evaluation tests in the above (2) for two weeks, hippocampi of such animals were excised. After the hippocampi were crushed using an automatic tissue crusher, the cells were lysed with a RIPA cell lysis buffer manufactured by Millipore Corporation which was diluted 10-fold with purified water added with combined protease/phosphatase inhibitors manufactured by Thermo Fisher Scientific K.K., and then centrifuged (10,000 rpm, 10 min, 4° C.), and the supernatant was used as a cell extract. The cell extract was used for analysis by Western Blotting according to a conventional method. […]
# NAD^+ [2] = assay: NAD+ amount increasing action (in vivo), NAD+/NADH Assay Kit; details: SAMP8 mice, single oral dose (180 minutes later) and mixed with food for one month; FIG. 4
# Experimental: as §1, §2
# A single dose of the sample prepared in (1) (a) was orally administered to animals for the evaluation tests in the above (2), and then cerebral cortices of such animals were excised 180 minutes later. In addition, the sample prepared in the above (1) (a) was mixed with food and fed to animals for the evaluation tests in the above (2) for one month, and then cerebral cortices of such animals were excised. The NAD^+ amount in the cerebral cortices was measured using NAD^+/NADH Assay Kit manufactured by Dojindo Laboratories. S-1-propenylcysteine increased NAD^+ amount.
# p53 protein = assay: Suppression of cellular senescence marker p53 protein in the hippocampus (in vivo); details: SAMP8 mice, repeated oral administration for six weeks; FIG. 5
# Experimental: as §1, §2
# as §3, with “six” for “two”, “a protease inhibitor and a phosphatase inhibitor” for “combined protease/phosphatase inhibitors”, “Roche,” for “Thermo Fisher Scientific K.K.,”
# SIRT1 gene = assay: Enhancement of SIRT1 gene expression in kidney (in vivo), real-time PCR; details: SAMP8 mice, repeated oral administration for two weeks, FIG. 6
# Experimental: as §1, §2
# (§4) After repeated oral administration of the sample prepared in the above (1) (a) to the animals for the evaluation tests in the above (2) for two weeks, kidneys of such animals were excised. The kidneys were crushed using an automatic tissue crusher, and then RNA was extracted using a TRIzol solution manufactured by Thermo Fisher Scientific K.K. CDNA was synthesized using PRIMEScript RT reagent Kit with gEraser manufactured by Takara. The synthesized CDNA was subjected to real-time PCR using KAPA SYBR Fast qPCR kit manufactured by Nippon Genetics Co., Ltd. The results are shown in FIG. 6. S-1-propenylcysteine increased the SIRT1 expression in the mouse kidney.
# p16 gene = assay: Suppression of senescent cell marker p16 gene expression in the kidney (in vivo); details: SAMP8 mice, repeated oral administration for two weeks, real-time PCR; FIG. 7
# Experimental: as §1, §2
# as §4, with “synthesized cDNA” for “synthesized CDNA”, “FIG. 7. […]” for “FIG. 6. S-1-propenylcysteine increased the SIRT1 expression in the mouse kidney.”
# p21 gene = assay: Suppression of senescent cell marker p21 gene expression in the kidney (in vivo); details: SAMP8 mice, repeated oral administration for two weeks, real-time PCR; FIG. 7
# Experimental: as §1, §2
# as §4, with “synthesized cDNA” for “synthesized CDNA”, “FIG. 7. […]” for “FIG. 6. S-1-propenylcysteine increased the SIRT1 expression in the mouse kidney.”
# KIM-1 = assay: Inhibitory action on kidney injuries (in vivo), KIM-1 Western Blotting; details: SAMP8 mice, repeated oral administration for two weeks, FIG. 8
# Experimental: as §1, §2
# (§5) After repeated oral administration of the sample prepared in the above (1) (a) to the animals for the evaluation tests in the above (2) for two weeks, kidneys of such animals were excised. After the kidneys were crushed using an automatic tissue crusher, the cells were lysed with an RIPA cell lysis buffer manufactured by Millipore Corporation which was diluted 10-fold with purified water added with a protease inhibitor and a phosphatase inhibitor manufactured by Roche and then centrifuged (10,000 rpm, 10 min, 4° C.), and the supernatant was used as a cell extract. The cell extract was used for analysis by Western Blotting according to a conventional method. […]
# lipocalin-2 (NGAL) = assay: Inhibitory action on kidney injuries (in vivo), NGAL Western Blotting; details: SAMP8 mice, repeated oral administration for two weeks, FIG. 8
# Experimental: as §1, §2, §5
# [3] = test system: Senescence-accelerated mice SAMP8; assay: Cognitive/memory retention action (in vivo), passive avoidance test; details: mixed with food for four months, holding trial after two months, FIG. 9
# Experimental: as §1, §2
# The sample prepared in the above (1) (a) was mixed with food and fed to animals for evaluation test in the above (2) for four months, and then a passive avoidance test was performed. The passive avoidance test is a test utilizing a habit that a mouse prefers a dark place, and on Day 1, a mouse already in a bright room was moved to a dark room while receiving an electrical shock (50 V/1 second), and the time it took for the mouse to enter the dark room was taken as response latency of an acquisition trial. After two months, the mouse was put in the bright room again and the time it took to move to the dark room (the response latency of a holding trial) was used as an index of memory.
# NAD^+ [4] = assay: NAD+ amount increasing action in kidney, skeletal muscle, and liver (in vivo); details: SAMP8 mice, single oral dose, 60 minutes later; FIG. 10
# Experimental: as §1, §2
# A single dose of the sample prepared in the above (1) (a) was orally administrated to animals for the evaluation tests in the above (2), and then cerebral cortexes, livers, kidneys, and skeletal muscles of such animals were extracted 60 minutes later. The NAD^+ amounts in the cerebral cortexes, livers, kidneys, and skeletal muscles were measured using NAD^+/NADH Assay Kit manufactured by Dojindo Laboratories. S-1-propenylcysteine increased the NAD^+ amount.
# SIRT1 protein [5] = assay: SIRT1 protein increasing action in cerebral cortex, hippocampus, heart, lung, liver, kidney, and skeletal muscle (in vivo); details: SAMP8 mice, about 10 mg in 10 mL liquid, repeated oral administration for two weeks; FIG. 11
# Experimental: as §2
# About 10 mg of S-1-propenylcysteine (cis/trans mixture) produced in Preparation Example 2 was weighed precisely, and dissolved in 10 mL of purified water to prepare an administration liquid. After repeated oral administration of the prepared sample to animals for the evaluation tests in the above (2) for two weeks, cerebral cortexes, hippocampi, hearts, lungs, livers, kidneys, and skeletal muscles of such animals were excised. After the cerebral cortexes, hippocampi, hearts, lungs, livers, kidneys, and skeletal muscles were crushed using an automatic tissue crusher, the cells were lysed with a RIPA cell lysis buffer manufactured by Millipore Corporation which was diluted 10-fold with purified water added with combined protease/phosphatase inhibitors manufactured by Thermo Fisher Scientific K.K., and then centrifuged (10,000 rpm, 10 min, 4° C.), and the supernatant was used as a cell extract. The cell extract was used for analysis by Western Blotting according to a conventional method. […]
# SIRT1 protein [6] = assay: SIRT1 protein increasing action in hypothalamus (in vivo); details: SAMP8 mice fed diet mixed with sample (0.001% liquid) for 10 months; FIG. 12
# Experimental: S-1-propenylcysteine (cis/trans mixture) produced in Preparation Example 2 was dissolved at a concentration of 0.001% in purified water to prepare an administration liquid. Animals for evaluating the biological activity were bred as follows. Senescence-accelerated mice SAMR1 (male) and SAMP8 (male) for testing were purchased from Japan SLC, Inc. After purchase, the animals were acclimatized for one week and used as animals for the evaluation tests. These animals for the evaluation tests were fed with regular diet and SAMP8 were fed with the diet mixed with the sample prepared above for 10 months, and then hypothalamuses of such animals were excised. After the hypothalamuses were crushed using an automatic tissue crusher, the cells were lysed with a RIPA cell lysis buffer manufactured by Millipore Corporation which was diluted 10-fold with purified water added with combined protease/phosphatase inhibitors manufactured by Thermo Fisher Scientific K.K., and then centrifuged (10,000 rpm, 10 min, 4° C.), and the supernatant was used as a cell extract. The cell extract was used for analysis by Western Blotting according to a conventional method. An anti-SIRT1 antibody (manufactured by Biolegend) and an anti-β-actin antibody (manufactured by Fujifilm Wako Pure Chemical Corporation) were used as antibodies. S-1-propenylcysteine increased the SIRT1 protein mass.
# SIRT1 protein [7] = assay: SIRT1 protein amount-increasing effect in liver and heart (in vivo); parameters: species or system mice; details: animals prepared as in (12) (SAMR1, SAMP8), repeated oral administration for two weeks; FIG. 13
smiles,measurement,setting,value
CC=CSC[C@H](N)C(=O)O [S-1-propenylcysteine],sirtuin activity in cerebral cortex,SIRT1,increased
same,SIRT1 protein mass in hippocampus,SIRT1 protein [1],increased
same,NAD^+ amount in cerebral cortices,NAD^+ [2],increased
same,p53 protein mass in hippocampus,p53 protein,reduced
same,SIRT1 expression in kidney,SIRT1 gene,increased
same,cells expressing p16 gene in the kidneys,p16 gene,reduced
same,cells expressing p21 gene in the kidneys,p21 gene,reduced
same,KIM-1 (marker of kidney injuries) in kidney,KIM-1,reduced
same,NGAL (marker of kidney injuries) in kidney,lipocalin-2 (NGAL),reduced
same,"cognitive and memory functions (response latency, passive avoidance test)",[3],ameliorated aging-related decline in cognitive and memory functions
same,"NAD^+ amount in cerebral cortexes, livers, kidneys, and skeletal muscles",NAD^+ [4],increased
same,"SIRT1 protein mass in cerebral cortexes, hippocampi, hearts, lungs, livers, kidneys, and skeletal muscles",SIRT1 protein [5],increased
same,SIRT1 protein mass in hypothalamus,SIRT1 protein [6],increased
same,SIRT1 protein mass in livers and hearts,SIRT1 protein [7],increased
